{"source": "patent US8192962B2", "about": "“Processes for detecting toxic substances” (Daikin Industries, Ltd., priority 2001, dated 2012)", "test_system": "Mitochondria-located protein genes", "experiment": "DNA chip mRNA expression in yeast, mitochondria-located protein genes (Table 2)", "assay_type": "cell-based, Saccharomyces cerevisiae S288C", "conditions": "cells incubated two hours with the chemical substance", "summary_of_the_method": "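Chemical exposure: 2 h, log-phase S. cerevisiae S288C, YPD, 25° C., dose set to inhibit growth without death. Profiling: mRNA labeled by reverse transcription with Cy3- or Cy5-dUTP, hybridized to whole-genome array. Output: fluorescence ratio against untreated culture.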", "data": [{"smiles": "CCCCCCCCCCCCc1ccc(S(=O)(=O)[O-])cc1.[Na+]", "note": "[(17), sodium dodecylbenzosulfonate]", "values": [{"measurement": "The level of expressed mRNA in the presence of chemical substance/The level of expressed mRNA in the absence of chemical substance", "setting": "yeast gene YJR121W", "value": 1.1}, {"measurement": "The level of expressed mRNA in the presence of chemical substance/The level of expressed mRNA in the absence of chemical substance", "setting": "yeast gene YKL003C", "value": 1.0}, {"measurement": "The level of expressed mRNA in the presence of chemical substance/The level of expressed mRNA in the absence of chemical substance", "setting": "yeast gene YKL016C", "value": 1.0}, {"measurement": "The level of expressed mRNA in the presence of chemical substance/The level of expressed mRNA in the absence of chemical substance", "setting": "yeast gene YKL141W", "value": 0.9}, {"measurement": "The level of expressed mRNA in the presence of chemical substance/The level of expressed mRNA in the absence of chemical substance", "setting": "yeast gene YKL142W", "value": 2.4}, {"measurement": "The level of expressed mRNA in the presence of chemical substance/The level of expressed mRNA in the absence of chemical substance", "setting": "yeast gene YKL148C", "value": 0.8}, {"measurement": "The level of expressed mRNA in the presence of chemical substance/The level of expressed mRNA in the absence of chemical substance", "setting": "yeast gene YKL170W", "value": 1.1}, {"measurement": "The level of expressed mRNA in the presence of chemical substance/The level of expressed mRNA in the absence of chemical substance", "setting": "yeast gene YKL194C", "value": 1.1}, {"measurement": "The level of expressed mRNA in the presence of chemical substance/The level of expressed mRNA in the absence of chemical substance", "setting": "yeast gene YKR066C", "value": 0.9}, {"measurement": "The level of expressed mRNA in the presence of chemical substance/The level of expressed mRNA in the absence of chemical substance", "setting": "yeast gene YLL041C", "value": 1.1}, {"measurement": "The level of expressed mRNA in the presence of chemical substance/The level of expressed mRNA in the absence of chemical substance", "setting": "yeast gene YLR038C", "value": 1.2}, {"measurement": "The level of expressed mRNA in the presence of chemical substance/The level of expressed mRNA in the absence of chemical substance", "setting": "yeast gene YLR259C", "value": 0.8}, {"measurement": "The level of expressed mRNA in the presence of chemical substance/The level of expressed mRNA in the absence of chemical substance", "setting": "yeast gene YLR295C", "value": 0.9}, {"measurement": "The level of expressed mRNA in the presence of chemical substance/The level of expressed mRNA in the absence of chemical substance", "setting": "yeast gene YLR304C", "value": 0.5}, {"measurement": "The level of expressed mRNA in the presence of chemical substance/The level of expressed mRNA in the absence of chemical substance", "setting": "yeast gene YLR348C", "value": 1.1}, {"measurement": "The level of expressed mRNA in the presence of chemical substance/The level of expressed mRNA in the absence of chemical substance", "setting": "yeast gene YLR395C", "value": 1.2}, {"measurement": "The level of expressed mRNA in the presence of chemical substance/The level of expressed mRNA in the absence of chemical substance", "setting": "yeast gene YML054C", "value": 1.1}, {"measurement": "The level of expressed mRNA in the presence of chemical substance/The level of expressed mRNA in the absence of chemical substance", "setting": "yeast gene YML120C", "value": 1.0}, {"measurement": "The level of expressed mRNA in the presence of chemical substance/The level of expressed mRNA in the absence of chemical substance", "setting": "yeast gene YML129C", "value": 1.3}, {"measurement": "The level of expressed mRNA in the presence of chemical substance/The level of expressed mRNA in the absence of chemical substance", "setting": "yeast gene YMR023C", "value": 1.1}, {"measurement": "The level of expressed mRNA in the presence of chemical substance/The level of expressed mRNA in the absence of chemical substance", "setting": "yeast gene YMR035W", "value": 2.2}, {"measurement": "The level of expressed mRNA in the presence of chemical substance/The level of expressed mRNA in the absence of chemical substance", "setting": "yeast gene YMR083W", "value": 0.9}, {"measurement": "The level of expressed mRNA in the presence of chemical substance/The level of expressed mRNA in the absence of chemical substance", "setting": "yeast gene YMR089C", "value": 0.9}, {"measurement": "The level of expressed mRNA in the presence of chemical substance/The level of expressed mRNA in the absence of chemical substance", "setting": "yeast gene YMR152W", "value": 1.5}, {"measurement": "The level of expressed mRNA in the presence of chemical substance/The level of expressed mRNA in the absence of chemical substance", "setting": "yeast gene YMR203W", "value": 0.8}, {"measurement": "The level of expressed mRNA in the presence of chemical substance/The level of expressed mRNA in the absence of chemical substance", "setting": "yeast gene YMR267W", "value": 0.9}, {"measurement": "The level of expressed mRNA in the presence of chemical substance/The level of expressed mRNA in the absence of chemical substance", "setting": "yeast gene YNL055C", "value": 1.2}, {"measurement": "The level of expressed mRNA in the presence of chemical substance/The level of expressed mRNA in the absence of chemical substance", "setting": "yeast gene YNL071W", "value": 1.0}, {"measurement": "The level of expressed mRNA in the presence of chemical substance/The level of expressed mRNA in the absence of chemical substance", "setting": "yeast gene YNL073W", "value": 0.8}, {"measurement": "The level of expressed mRNA in the presence of chemical substance/The level of expressed mRNA in the absence of chemical substance", "setting": "yeast gene YNL104C", "value": 0.9}, {"measurement": "The level of expressed mRNA in the presence of chemical substance/The level of expressed mRNA in the absence of chemical substance", "setting": "yeast gene YNL256W", "value": 0.6}, {"measurement": "The level of expressed mRNA in the presence of chemical substance/The level of expressed mRNA in the absence of chemical substance", "setting": "yeast gene YOL096C", "value": 1.2}, {"measurement": "The level of expressed mRNA in the presence of chemical substance/The level of expressed mRNA in the absence of chemical substance", "setting": "yeast gene YOR020C", "value": 1.4}, {"measurement": "The level of expressed mRNA in the presence of chemical substance/The level of expressed mRNA in the absence of chemical substance", "setting": "yeast gene YOR037W", "value": 1.2}, {"measurement": "The level of expressed mRNA in the presence of chemical substance/The level of expressed mRNA in the absence of chemical substance", "setting": "yeast gene YOR100C", "value": 0.9}, {"measurement": "The level of expressed mRNA in the presence of chemical substance/The level of expressed mRNA in the absence of chemical substance", "setting": "yeast gene YOR130C", "value": 1.5}, {"measurement": "The level of expressed mRNA in the presence of chemical substance/The level of expressed mRNA in the absence of chemical substance", "setting": "yeast gene YOR142W", "value": 0.9}, {"measurement": "The level of expressed mRNA in the presence of chemical substance/The level of expressed mRNA in the absence of chemical substance", "setting": "yeast gene YOR150W", "value": 0.9}, {"measurement": "The level of expressed mRNA in the presence of chemical substance/The level of expressed mRNA in the absence of chemical substance", "setting": "yeast gene YOR176W", "value": 1.2}, {"measurement": "The level of expressed mRNA in the presence of chemical substance/The level of expressed mRNA in the absence of chemical substance", "setting": "yeast gene YOR187W", "value": 0.8}, {"measurement": "The level of expressed mRNA in the presence of chemical substance/The level of expressed mRNA in the absence of chemical substance", "setting": "yeast gene YOR316C", "value": 0.8}, {"measurement": "The level of expressed mRNA in the presence of chemical substance/The level of expressed mRNA in the absence of chemical substance", "setting": "yeast gene YPL040C", "value": 0.8}, {"measurement": "The level of expressed mRNA in the presence of chemical substance/The level of expressed mRNA in the absence of chemical substance", "setting": "yeast gene YPL134C", "value": 1.3}, {"measurement": "The level of expressed mRNA in the presence of chemical substance/The level of expressed mRNA in the absence of chemical substance", "setting": "yeast gene YPL135W", "value": 1.5}, {"measurement": "The level of expressed mRNA in the presence of chemical substance/The level of expressed mRNA in the absence of chemical substance", "setting": "yeast gene YPL215W", "value": 1.0}, {"measurement": "The level of expressed mRNA in the presence of chemical substance/The level of expressed mRNA in the absence of chemical substance", "setting": "yeast gene YPL262W", "value": 1.1}, {"measurement": "The level of expressed mRNA in the presence of chemical substance/The level of expressed mRNA in the absence of chemical substance", "setting": "yeast gene YPR024W", "value": 1.1}, {"measurement": "The level of expressed mRNA in the presence of chemical substance/The level of expressed mRNA in the absence of chemical substance", "setting": "yeast gene YPR037C", "value": 1.2}, {"measurement": "The level of expressed mRNA in the presence of chemical substance/The level of expressed mRNA in the absence of chemical substance", "setting": "yeast gene YPR047W", "value": 1.0}, {"measurement": "The level of expressed mRNA in the presence of chemical substance/The level of expressed mRNA in the absence of chemical substance", "setting": "yeast gene YPR134W", "value": 1.0}]}]}
